{
  "source": "patent US20070027175A1",
  "about": "“Antineoplastic activities of ellipticine and its derivatives” (priority 2005, published 2007)",
  "type_in_all_cases": "cell-based, human",
  "key": {"CAG myeloma cell line": {"tested_on": "CAG myeloma cell line", "experiment": "CellTiter-Glo luminescent cell viability assay, CAG", "design": "unit of the concentration uncertain", "experimental": "(§1) The dosage of each derivative was set at 2, 0.2 and 0.02 mM. A cell culture medium control and 0.5% DMSO control was maintained in each experiment. The cell viability was tested each day over a period of five days using the CellTiter-Glo luminescent cell viability assay kit from Promega Co.\n(§2) Cell Titer-Glo luminescent cell viability assay kit from Promega Co (Madison, Wis.) was used to determine cell growth inhibition by the various compounds tested. The kit determines cell viability by quantifying the amount of ATP present in the cell culture medium. Presence of ATP signals the presence of metabolically active cells (3). The intensity of luminescence was measured by a computerized luminometer (Promega, Co. Madison, Wis.). Each well was read five times within 30 minutes of adding Cell Titer-Glo reagent mixture.\nCells were contacted with the antineoplastic agents in ninety six well culture plates. The concentration of each neoplastic agent was maintained a constant. A cell culture medium control and 0.5% DMSO control were maintained in each set of experiments. The cell viability was tested every day using the CellTiter-Glo luminescent cell viability kit from Promega Co. (Madison, Wis.) for a period of five days."}, "[1]": {"tested_on": "RPMI8226 myeloma cell line", "experiment": "CellTiter-Glo luminescent cell viability assay, RPMI8226", "design": "unit of the concentration uncertain", "experimental": "as §1\nas §2, with “mixture. […]” for “mixture.”"}, "8226/Dox1V cells": {"tested_on": "8226/Dox1V cells", "experiment": "Drug resistance and cytotoxicity MTT assay, 8226/Dox1V", "experimental": "FIGS. 13A-13B show dose response of RPMI 8226 and 8226/Dox1V myeloma cells to EPED3 (FIG. 13A) or Dox (FIG. 13B). Cells were incubated for 96 hours with drug concentrations as indicated and analyzed by MTT assays; linear regression analysis was used to determine the IC50 for each drug (EPED3, FIG. 13A; Dox, FIG. 13B) and each cell line (RPMI8226, squares; 8226/Dox1V, circles). Data are presented as the mean of four independent experiments.\nThe 8226/Dox1V cell line was established by chronic exposure to Dox in presence of P-glycoprotein inhibitor, verapamil and was characterized by reduced expression and activity of topo II (Futscher et al., 1993).\nThe 8226/Dox1V and its parental line, RPMI 8226, cells were plated in 96-well plates at 10,000 cells/well and incubated with serial dilutions of EPED3 or Dox, as previously described (Landowski et al., 1999). After 96 hours incubation at 37° C., MTT was added to each well at a final concentration of 20 μg/ml and incubated an additional 4 hours. Plates were centrifuged and the media replaced with 0.1 ml DMSO to solublize the formazan complex. Optical density was measured at 540 nm using a Bio-Tek microplate spectrophotometer. IC50 values were calculated by linear regression analysis (Origins® Software Technologies, Inc.) of the log-linear plot for percent survival versus log drug concentration.\nIn drug resistance studies, the efficacy of EPED3 with 8226/Dox1V cells and the parental line, RPMI 8226 cells was investigated. Both cell lines were treated with either EPED3 or Dox, and the MTT assays were used to assess cell growth. Linear regression analysis of 96-hour dose-response curves was used to compare cytotoxicity of EPED3 in 8226/Dox1V and RPMI 8226 cell lines."}},
  "data": [
    {"smiles": "Cc1c2ccncc2c(C)c2c1[nH]c1ccc(OCCN(C)C)cc12", "note": "[NSC 338258, ellipticine, 9-dimethyl amino-ethoxy-]", "values": [
      {"measurement": "cell viability (CellTiter-Glo luminescent assay)", "setting": "CAG myeloma cell line; 0.02 (unit uncertain), Day 1", "result": "173,140"},
      {"measurement": "cell viability (CellTiter-Glo luminescent assay)", "setting": "CAG myeloma cell line; 0.02 (unit uncertain), Day 2", "result": "383,737"},
      {"measurement": "cell viability (CellTiter-Glo luminescent assay)", "setting": "CAG myeloma cell line; 0.02 (unit uncertain), Day 3", "result": "780,458"},
      {"measurement": "cell viability (CellTiter-Glo luminescent assay)", "setting": "CAG myeloma cell line; 0.02 (unit uncertain), Day 4", "result": "1,670,491"},
      {"measurement": "cell viability (CellTiter-Glo luminescent assay)", "setting": "CAG myeloma cell line; 0.02 (unit uncertain), Day 5", "result": "3,108,577"},
      {"measurement": "cell viability (CellTiter-Glo luminescent assay)", "setting": "CAG myeloma cell line; 0.2 (unit uncertain), Day 1", "result": "103,658"},
      {"measurement": "cell viability (CellTiter-Glo luminescent assay)", "setting": "CAG myeloma cell line; 0.2 (unit uncertain), Day 2", "result": "105,998"},
      {"measurement": "cell viability (CellTiter-Glo luminescent assay)", "setting": "CAG myeloma cell line; 0.2 (unit uncertain), Day 3", "result": "111,306"},
      {"measurement": "cell viability (CellTiter-Glo luminescent assay)", "setting": "CAG myeloma cell line; 0.2 (unit uncertain), Day 4", "result": "123,316"},
      {"measurement": "cell viability (CellTiter-Glo luminescent assay)", "setting": "CAG myeloma cell line; 0.2 (unit uncertain), Day 5", "result": "64,052"},
      {"measurement": "cell viability (CellTiter-Glo luminescent assay)", "setting": "CAG myeloma cell line; 2 (unit uncertain), Day 1", "result": "76,441"},
      {"measurement": "cell viability (CellTiter-Glo luminescent assay)", "setting": "CAG myeloma cell line; 2 (unit uncertain), Day 2", "result": "39,273"},
      {"measurement": "cell viability (CellTiter-Glo luminescent assay)", "setting": "CAG myeloma cell line; 2 (unit uncertain), Day 3", "result": "23,807"},
      {"measurement": "cell viability (CellTiter-Glo luminescent assay)", "setting": "CAG myeloma cell line; 2 (unit uncertain), Day 4", "result": "19,546"},
      {"measurement": "cell viability (CellTiter-Glo luminescent assay)", "setting": "CAG myeloma cell line; 2 (unit uncertain), Day 5", "result": "5,483"},
      {"measurement": "cell viability (CellTiter-Glo luminescent assay)", "setting": "[1]; 0.02 (unit uncertain), Day 1", "result": "94,826"},
      {"measurement": "cell viability (CellTiter-Glo luminescent assay)", "setting": "[1]; 0.02 (unit uncertain), Day 2", "result": "180,382"},
      {"measurement": "cell viability (CellTiter-Glo luminescent assay)", "setting": "[1]; 0.02 (unit uncertain), Day 3", "result": "302,609"},
      {"measurement": "cell viability (CellTiter-Glo luminescent assay)", "setting": "[1]; 0.02 (unit uncertain), Day 4", "result": "516,569"},
      {"measurement": "cell viability (CellTiter-Glo luminescent assay)", "setting": "[1]; 0.02 (unit uncertain), Day 5", "result": "777,427"},
      {"measurement": "cell viability (CellTiter-Glo luminescent assay)", "setting": "[1]; 0.2 (unit uncertain), Day 1", "result": "3,790"},
      {"measurement": "cell viability (CellTiter-Glo luminescent assay)", "setting": "[1]; 0.2 (unit uncertain), Day 2", "result": "2,320"},
      {"measurement": "cell viability (CellTiter-Glo luminescent assay)", "setting": "[1]; 0.2 (unit uncertain), Day 3", "result": "1,254"},
      {"measurement": "cell viability (CellTiter-Glo luminescent assay)", "setting": "[1]; 0.2 (unit uncertain), Day 4", "result": "1,026"},
      {"measurement": "cell viability (CellTiter-Glo luminescent assay)", "setting": "[1]; 0.2 (unit uncertain), Day 5", "result": 321},
      {"measurement": "cell viability (CellTiter-Glo luminescent assay)", "setting": "[1]; 2 (unit uncertain), Day 1", "result": "4,685"},
      {"measurement": "cell viability (CellTiter-Glo luminescent assay)", "setting": "[1]; 2 (unit uncertain), Day 2", "result": 923},
      {"measurement": "cell viability (CellTiter-Glo luminescent assay)", "setting": "[1]; 2 (unit uncertain), Day 3", "result": 871},
      {"measurement": "cell viability (CellTiter-Glo luminescent assay)", "setting": "[1]; 2 (unit uncertain), Day 4", "result": 234},
      {"measurement": "cell viability (CellTiter-Glo luminescent assay)", "setting": "[1]; 2 (unit uncertain), Day 5", "result": 104},
      {"measurement": "IC50", "setting": "8226/Dox1V cells; 8226/Dox1V, 96 hours", "result": 0.131, "unit": "µM"},
      {"measurement": "resistance of 8226/Dox1V versus parental RPMI 8226", "setting": "8226/Dox1V cells; ratio of IC50, 96 hours", "result": "no significant resistance"}
    ]}
  ]
}
